Source: US7943643B2, “Aryl substituted pyridines and the use thereof” (Purdue Pharma L.P., priority 2001, dated 2011)

Target: rBIIa/beta 1 sodium channels (Rattus norvegicus, UniProt P04775)
Assay: Electrophysiological assay, two-electrode voltage clamp in Xenopus oocytes
Assay type: cell-based
Conditions: apparent inhibition constant from single point inhibition data; inactivated-state voltage protocol; channels expressed in Xenopus oocytes; read-out: RBIIA/β1 Ki
Protocol: Electrophysiological Assay:
Electrophysiological Assay was used to measure potencies of compounds of the present invention rBIIa/beta 1 sodium channels expressed in Xenopus oocytes.
Preparation of cRNA encoding cloned rat brain type IIa (rBIIa) and beta 1 (β1): cDNA clones encoding the rat brain beta 1 subunit were cloned in house using standard methods, and mRNA were prepared by standard methods. mRNA encoding rBIIa was provided by Dr. A. Golden (UC Irvine). The mRNAs were diluted and stored at −80° C. in 1 μL aliquots until injection.
Preparation of oocytes: Mature female Xenopus laevis were anaesthetized (20-40 min) using 0.15% 3-aminobenzoic acid ethyl ester (MS-222) following established procedures (Woodward, R. M., et al., Mol. Pharmacol. 41:89-103 (1992)).
Two to six ovarian lobes were surgically removed. Oocytes at developmental stages V-VI were dissected from the ovary, oocytes were still surrounded by enveloping ovarian tissues. Oocytes were defolliculated on the day of surgery by treatment with collagenase (0.5 mg/mL Sigma Type I, or Boehringer Mannheim Type A, for 0.5-1 hr). Treated oocytes were vortexed to dislodge epithelia, washed repeatedly and stored in Barth's medium containing 88 mM NaCl, 1 mM KCl, 0.41 mM CaCl2, 0.33 mM Ca(NO3)2, 0.82 mM MgSO4, 2.4 mM NaHCO3, 5 mM HEPES, pH 7.4 adjusted with 0.1 mg/mL gentamycin sulphate.
Micro-injection of oocytes: Defolliculated oocytes were micro-injected using a Nanoject injection system (Drummond Scientific Co., Broomall, Pa.). Injection pipettes were beveled to minimize clogging. Tip diameter of injection pipettes was 15-35 μm. Oocytes were microinjected with approximately 50 nL 1:10 ratio mixtures of cRNAs for rBIIa and beta 1 respectively.
Electrophysiology: Membrane current responses were recorded in frog Ringer solution containing 115 mM NaCl, 2 mM KCl, 1.8 mM CaCl2, 5 mM HEPES, pH 7.4. Electrical recordings were made using a conventional two-electrode voltage clamp (Dagan TEV-200) over periods ranging between 1-7 days following injection. The recording chamber was a simple gravity fed flow-through chamber (volume […] depending on adjustment of aspirator). Oocytes were placed in the recording chamber, impaled with electrodes and continuously perfused (5-15 mL min^−1) with frog Ringer's solution. The tested compounds were applied by bath perfusion.
Voltage protocols for evoking sodium channel currents: The standard holding potential for whole oocyte clamp was −120 mV. Standard current-voltage relationships were elicited by 40 ms depolarizing steps starting from −60 mV to +50 mV in 10 mV increments. Peak currents were measured as the maximum negative current after depolarizing voltage steps. The voltage from maximum current response was noted and used for the next voltage protocol.
The purpose was to find compounds that are state dependent modifiers of neuronal sodium channels. Preferably, the compounds have a low affinity for the rested/closed state of the channel, but a high affinity for the inactivated state. The following voltage protocol was used to measure a compounds affinity for the inactivated state. Oocytes were held at a holding potential of −120 mV. At this membrane voltage, nearly all of the channels would be in the closed state. Then a 4 second depolarization was made to the voltage where the maximum current was elicited. At the end of this depolarization, nearly all the channels would be in the inactivated state. A 10 ms hyperpolarizing step was then made in order to remove some channels from the inactivated state. A final depolarizing test pulse was used to assay the sodium current after this prolonged depolarization (see analysis below). Sodium currents were measured at this test pulse before and after the application of the tested compound. Data was acquired using pClamp 8.0 software and analyzed with clampfit software (Axon instruments). […]

Row | Ki [µM] | Structure (SMILES)
1 | 44.6 | COc1ccc(-c2ccc(C(N)=O)cn2)cc1 [2-(4-Methoxyphenyl)pyridine-5-carboxamide]
2 | 32.9 | CCCCc1ccc(-c2cc(C(N)=O)ccn2)cc1 [2-(4-n-Butylphenyl)pyridine-4-carboxamide]
3 | 24.5 | CCCCc1ccc(-c2ccc(C(N)=O)cn2)cc1 [2-(4-n-Butylphenyl)pyridine-5-carboxamide]
4 | 6.17 | COc1ccc(-c2cc(C(N)=O)ccn2)cc1 [2-(4-Methoxyphenyl)pyridine-4-carboxamide]
5 | 14.6 | NC(=O)c1ccc(-c2ccc(Oc3ccccc3)cc2)nc1 [2-(4-Phenoxyphenyl)pyridine-5-carboxamide]
6 | 29.7 | CCOc1ccc(-c2ccc(C(N)=O)cn2)cc1 [2-(4-ethoxyphenyl)pyridine-5-carboxamide, 2-(4-Ethoxyphenyl)pyridine-5-carboxamide]
7 | 28.1 | NC(=O)c1ccc(-c2ccc3ccccc3c2)nc1 [2-(2-naphthyl)pyridine-5-carboxamide, 2-(2-Naphthyl)pyridine-5-carboxamide]
8 | 24.7 | NC(=O)c1ccc(-c2ccc(C(F)(F)F)cc2)nc1 [2-(4-Trifluoromethylphenyl)pyridine-5-carboxamide]
9 | 53.1 | CC(C)(C)c1ccc(-c2cc(C(N)=O)ccn2)cc1 [2-(4-tert-Butylphenyl)pyridine-4-carboxamide]
10 | 34.2 | NC(=O)c1ccc(-c2ccc(OC(F)(F)F)cc2)nc1 [2-(4-Trifluoromethoxyphenyl)pyridine-5-carboxamide]
11 | 14.7 | CCOc1ccc(-c2cc(C(N)=O)ccn2)cc1 [2-(4-ethoxyphenyl)pyridine-4-carboxamide, 2-(4-Ethoxyphenyl)pyridine-4-carboxamide]
12 | 35.6 | CSc1ccc(-c2ccc(C(N)=O)cn2)cc1 [2-(4-Thiomethylphenyl)pyridine-5-carboxamide]
13 | 40.7 | NC(=O)c1ccc(-c2ccc(-c3ccccc3)cc2)nc1 [2-(2-phenylphenyl)pyridine-5-carboxamide, 2-(4-Phenylphenyl)pyridine-5-carboxamide]
14 | 18.6 | CC(C)(C)c1ccc(-c2cncc(C(N)=O)c2)cc1 [5-(4-tert-Butylphenyl)pyridine-3-carboxamide]
15 | 39.2 | CC(C)c1ccc(-c2cc(C(N)=O)ccn2)cc1 [2-(4-i-Propylphenyl)pyridine-4-carboxamide]
16 | 32.3 | CC(C)(C)c1ccc(-c2ccc(C(N)=O)cn2)cc1 [2-(4-tert-Butylphenyl)pyridine-5-carboxamide]
17 | 23 | NC(=O)c1cncc(-c2ccc(C(F)(F)F)cc2)c1 [5-(4-Trifluoromethylphenyl)pyridine-3-carboxamide]

More lines, now with the values behind:

Row | Structure (SMILES) | Ki [µM]
18 | NC(=O)c1cccnc1-c1ccc(Oc2ccc(F)cc2)cc1 [2-[4-(4-Fluorophenoxy)phenyl]pyridine-3-carboxamide] | 13.6
19 | NC(=O)c1cncc(-c2ccc3ccccc3c2)c1 [5-(2-naphthyl)pyridine-3-carboxamide, 5-(2-Naphthyl)pyridine-3-carboxamide] | 35.1
20 | CCOc1ccc(-c2cncc(C(N)=O)c2)cc1 [5-(4-ethoxyphenyl)pyridine-3-carboxamide, 5-(4-Ethoxyphenyl)pyridine-3-carboxamide] | 36.2
21 | NC(=O)c1ccnc(-c2ccc(OC(F)(F)F)cc2)c1 [2-(4-Trifluoromethoxyphenyl)pyridine-4-carboxamide] | 24.7
22 | O=C(NCCN1CCCCC1)c1ccc(-c2ccc(Oc3ccc(F)cc3)cc2)nc1 [2-[4-(4-Fluorophenoxy)phenyl]pyridine 5-carboxylic acid 2-(N-piperidinyl)ethylamide] | 0.95
23 | CSc1ccc(-c2cncc(C(N)=O)c2)cc1 [5-(4-Thiomethylphenyl)pyridine-3-carboxamide] | 29
24 | NC(=O)c1cncc(-c2ccc(OC(F)(F)F)cc2)c1 [5-(4-Trifluoromethoxyphenyl)pyridine-3-carboxamide] | 25
25 | O=C(NCCN1CCCCC1)c1cncc(-c2ccc(Oc3ccc(F)cc3)cc2)c1 [5-[4-(4-fluorophenoxy)phenyl]pyridine 3-carboxylic acid 2-(N-piperidinyl)ethylamide] | 0.78
26 | COc1ccc(-c2cncc(C(N)=O)c2)cc1 [5-(4-Methoxyphenyl)pyridine-3-carboxamide] | 54.4
27 | NC(=O)c1ccnc(-c2ccc(Oc3ccc(F)cc3)cc2)c1 [2-[4-(4-Fluorophenoxy)phenyl]pyridine-4-carboxamide] | 6.91
28 | NC(=O)c1ccnc(-c2ccc(-c3ccccc3)cc2)c1 [2-(2-phenylphenyl)pyridine-4-carboxamide, 2-(4-Phenylphenyl)pyridine-4-carboxamide] | 24.9
29 | NC(=O)c1cncc(-c2ccc(Oc3ccccc3)cc2)c1 [5-(4-Phenoxyphenyl)pyridine-3-carboxamide] | 5.43
30 | CCCCc1ccc(-c2cncc(C(N)=O)c2)cc1 [5-(4-n-Butylphenyl)pyridine-3-carboxamide] | 11.1
31 | NC(=O)c1ccnc(-c2ccc(Oc3ccccc3)cc2)c1 [2-(4-Phenoxyphenyl)pyridine-4-carboxamide] | 22.3
